Results on 19 compounds are retold here after PubChem BioAssay (NCI).

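Assay format: 96-well plates, 48-hour exposure. At the GI50, growth is halved. At the TGI there is no net growth.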

Common to all, as to assay: NCI anticancer screen, dose series, 48 h
In assay [1] the test system is U251 CNS.
The subject of assay [2] is CCRF-CEM leukemia.
Assay [3] deals with SNB-19 CNS.
For assay [4], the system named is SK-MEL-5 melanoma.
Assay [5] relates to SF-295 CNS.
Assay [6] concerns SK-MEL-2 melanoma.
For assay [7], the system named is HCC-2998 colon.
The subject of assay [8] is NCI-H460 lung.
Assay [9] concerns LOX IMVI melanoma.
The subject of assay [10] is NCI-H23 lung.

For the compound `Cn1cc(-c2ccc3c4ccccc4n(C)c3c2)c2ccccc21`, the TGI in [1], in assay [2], in assay [3], in assay [4], in [5] and in assay [6] was over 100 µM in each case. For the same compound, the TGI in [7], in assay [8], in [9] and in assay [10] was over 100 µM in each case.
On to `Nc1[nH]nc(Nc2ccccc2)c1-c1nc2ccccc2s1`, for which the GI50 is 2.26 µM in [1]; 0.911 µM in assay [2]; 2.08 µM in [3]; 4.66 µM in assay [4]; 1.56 µM in assay [5]; 2.77 µM in assay [6]. In addition, the GI50 in assay [7] was 1.88 µM; in assay [8], 1.94 µM; in assay [9], 1.59 µM; in [10], 1.73 µM. Further, the TGI turned out to be 5.5 µM in assay [1]; 9.61 µM in assay [2]; 4.56 µM in assay [3]; 15.8 µM in assay [4]; 3.27 µM in assay [5]; 8.9 µM in [6]. Besides, the TGI was determined as 4.21 µM in assay [7], 4.17 µM in assay [8], 2.97 µM in assay [9] and 5.04 µM in assay [10].
As for `Nc1c(C(=O)c2cccc(-c3cccnc3)c2)cnn1-c1ccc(F)cc1`, the GI50 in assay [1], in [2], in assay [3], in assay [4], in [5] and in [6] was over 25 µM throughout. Besides, the GI50 in [7], in assay [8], in assay [9] and in assay [10] was over 25 µM throughout. Further, the TGI in [1], in [2], in assay [3], in [4], in assay [5] and in assay [6] was over 25 µM in each case. Further, the TGI in [7], in [8], in assay [9] and in [10] was over 25 µM throughout.
On to `CCCC(=O)Oc1ccc(/C(=C(\C)c2ccc(Cl)cc2)c2ccc(OCCN(CC)CC)cc2)cc1`, for which the GI50 was 1.95 µM in [1]; 4.18 µM in [2]; 2.81 µM in [3]; 1.75 µM in assay [4]; 1.93 µM in assay [5]; 2.83 µM in [6]. The GI50 in assay [7] was 2.67 µM; in [8], 2.12 µM; in assay [9] it was 1.85 µM; in [10], 3.69 µM. In addition, the TGI in assay [1] was 4.06 µM; in assay [2], 15.5 µM; in assay [3], 7.29 µM; in [4], 3.21 µM; in assay [5], 3.81 µM; in [6], 5.93 µM. In addition, the TGI amounted to 7.06 µM in [7], 4.4 µM in assay [8], 3.4 µM in [9] and 15.6 µM in assay [10].
Consider `CNc1c2ccccc2nc2occ(Cl)c12`, for which the GI50 was 31.4 µM in assay [1]; 27.1 µM in [2]; 51.6 µM in [3]; 16.6 µM in [4]; 20.6 µM in assay [5]; over 100 µM in assay [6]. Further, the GI50 in assay [7] was 36 µM; in assay [8] it was 21.8 µM; in [9], 25.5 µM; in assay [10], 40.9 µM. The TGI in assay [1] was over 100 µM; in [2] it was 84.5 µM; in assay [3] it was over 100 µM; in assay [4] it was 34.8 µM; in assay [5] it was 88.2 µM; in assay [6], over 100 µM. Besides, the TGI is over 100 µM in assay [7], 72.1 µM in [8], 75.2 µM in assay [9] and over 100 µM in assay [10].
As to `O=C(O)c1cccc([As]=[As]c2cccc(C(=O)O)c2)c1` (centres undefined), the TGI was 35.5 µM in assay [1]; 79 µM in [2]; over 100 µM in assay [3]; 96.1 µM in [4]; over 100 µM in [5]; 55.6 µM in assay [6]. Moreover, the TGI in [7] is over 100 µM; in [8], over 100 µM; in assay [9] it was 69.6 µM; in [10], over 100 µM.
On to `CC(C)(C)C1=CC(=N/N=c2\scc(-c3ccccc3)n2Cc2ccccc2)C=C(C(C)(C)C)C1=O`, for which the TGI in assay [1], in assay [2], in assay [3], in assay [4], in assay [5] and in assay [6] was over 100 µM each time. Besides, the TGI in assay [7], in [8], in assay [9] and in assay [10] was over 100 µM each time.
For `O=C1c2ccccc2C(=O)c2c1ccc1conc21`, the TGI in [1] came out at 3.14 µM; in assay [2], 71.1 µM; in [3], 11.5 µM; in assay [4], 4.83 µM; in assay [5], 4.97 µM; in [6], 7.14 µM. For the same compound, the TGI in [7] worked out at 29.8 µM; in assay [8] it was 12.2 µM; in assay [9] it was 1.78 µM; in assay [10], 3.3 µM.
`O=C(CCN1CCCC1)Nc1ccc2c(Nc3ccc(F)cc3)c3ccccc3nc2c1`: the GI50 in assay [1] is 1.17 µM; in [2] it was 0.274 µM; in assay [3], 0.836 µM; in assay [4], 1.53 µM; in assay [5], 1.05 µM; in assay [6], 1.85 µM. Further, the GI50 in [7] was 1.16 µM; in assay [8], 0.211 µM; in assay [9] it was 0.606 µM; in assay [10], 1.08 µM. The TGI came to 3.03 µM in [1]; 11.1 µM in [2]; 3.53 µM in [3]; 2.88 µM in [4]; 2.32 µM in assay [5]; 3.64 µM in assay [6]. Besides, the TGI in assay [7] was determined as 2.52 µM; in assay [8] it was 1.38 µM; in assay [9], 2.01 µM; in [10], 2.63 µM.
For `O=[N+]([O-])c1ccc(Sc2cccc[n+]2[O-])c2nonc12`, the GI50 in assay [1] was 3.56 µM; in [2], 1.42 µM; in [3] it was 17.1 µM; in assay [4], 5.72 µM; in assay [5], 3.37 µM; in [6] it was 13.5 µM. Also, the GI50 is 4.58 µM in [7], 3.64 µM in assay [8], 3.28 µM in assay [9] and 7.97 µM in assay [10]. Besides, the TGI in assay [1] was 17.6 µM; in [3], over 100 µM; in assay [4] it was 18.7 µM; in assay [5] it was 43.7 µM; in assay [6], 36.3 µM; in [7], 16.9 µM. Also, the TGI in assay [8] stood at 25.2 µM; in [9], 11.7 µM; in assay [10], 26.8 µM.
Consider `O=C(O)/C=C/c1c2ccc(=O)c(O)c-2oc2c(O)c(O)ccc12`, for which the TGI is 35.3 µM in assay [1]; 23.2 µM in [2]; over 100 µM in [3]; over 100 µM in assay [4]; 55 µM in assay [5]; over 100 µM in assay [6]. In addition, the TGI is over 100 µM in assay [7], over 100 µM in assay [8], 62.2 µM in assay [9] and over 100 µM in [10].
Consider `Cc1c(C)c2cc3c(=O)c(CCl)coc3c(C)c2oc1=O`, for which the TGI in [1], in assay [2], in assay [3], in assay [4], in assay [5] and in [6] was over 100 µM in each case. Besides, the TGI in assay [7], in assay [8], in assay [9] and in assay [10] was over 100 µM in each case.
Turning to `COCN1COCN(C)C1=O`, the TGI in [1], in assay [2], in assay [3], in [4], in assay [5] and in assay [6] was over 100 µM each time. Also, the TGI in assay [7], in assay [8], in assay [9] and in assay [10] was over 100 µM each time.
In the case of `COc1ccc(Cn2cc3c(c2-c2ccccc2)CCc2cnoc2-3)cc1`, the GI50 in assay [1] was 0.264 µM; in assay [2], 0.251 µM; in assay [3], 0.351 µM; in [4], 0.0479 µM; in [5], 0.0652 µM; in assay [6], 2.79 µM. In addition, the GI50 in assay [7] was 0.209 µM; in assay [8], 0.25 µM; in assay [9], 0.38 µM; in assay [10] it was 0.234 µM. The TGI in assay [1] was over 100 µM; in assay [2], over 100 µM; in assay [3], over 100 µM; in assay [4], 0.504 µM; in assay [5], over 100 µM; in [6], over 100 µM. Further, the TGI in [7] is 0.905 µM; in assay [8], 2.12 µM; in [9], over 100 µM; in assay [10] it was over 100 µM.
For the compound `COc1ccc(-n2nc(C)c3c(Nc4ccc(NC(=O)Nc5cccc(C(F)(F)F)c5)cc4)ncnc32)cc1`, the GI50 was 1.08 µM in [1]; 2.3 µM in assay [2]; 1.95 µM in assay [3]; 1.75 µM in [4]; 1.67 µM in assay [5]; 2.04 µM in assay [6]. Moreover, the GI50 in [7] was 2.24 µM; in [8], 1.98 µM; in [9], 1.3 µM; in [10] it was 1.68 µM. Also, the TGI in assay [1] is 2.35 µM; in [2] it was 8.76 µM; in assay [3], 4.65 µM; in [4] it was 3.21 µM; in assay [5], 3.3 µM; in assay [6], 4.01 µM. Besides, the TGI in [7] stood at 5.31 µM; in assay [8] it was 4.12 µM; in assay [9] it was 2.65 µM; in assay [10] it was 3.68 µM.
For the compound `CN(C)Cc1ccc(NC(=O)c2cncc(C#Cc3cnc(N)c4ncccc34)c2)cc1C(F)(F)F`, the GI50 in [1] was 1.63 µM; in assay [2], 1.34 µM; in [3], 1.89 µM; in assay [4], 1.17 µM; in [5], 1.59 µM; in assay [6], 1.56 µM. Further, the GI50 in assay [7] is 1.62 µM; in [8], 1.67 µM; in assay [9] it was 0.994 µM; in [10] it was 1.25 µM. Also, the TGI in [1] turned out to be 3.13 µM; in [2] it was 3.57 µM; in assay [3] it was 3.5 µM; in assay [4], 2.41 µM; in assay [5], 2.98 µM; in assay [6], 27 µM. Moreover, the TGI came to 3.16 µM in assay [7], 3.12 µM in [8], 2.24 µM in assay [9] and 2.68 µM in assay [10].
Turning to `O=c1[nH]c2nc3ccccc3c(=O)n2nc1Cc1ccccc1`, the TGI in assay [1], in assay [2], in [3], in [4], in assay [5] and in assay [6] was over 100 µM in each case. Also, the TGI in assay [7], in [8], in assay [9] and in assay [10] was over 100 µM in each case.
Regarding `CN1CCN(C2=C(Cl)C(=O)c3ccccc3C2=O)CC1`, the GI50 in assay [1] was 1.72 µM; in assay [2] it was 2.45 µM; in assay [3], 4.08 µM; in assay [4] it was 1.55 µM; in assay [5], 4.8 µM; in [6], 3.15 µM. For the same compound, the GI50 was 2.05 µM in assay [7], 2.95 µM in assay [8], 1.6 µM in assay [9] and 1.72 µM in assay [10]. Besides, the TGI in assay [1] was 3.28 µM; in assay [2] it was 7.96 µM; in assay [3], 15.3 µM; in assay [4], 2.93 µM; in [5] it was 15.9 µM; in assay [6], 7.96 µM. Further, the TGI in assay [7] was 4.51 µM; in assay [8] it was 9.47 µM; in assay [9], 3 µM; in assay [10] it was 3.65 µM.
On to `CC(=O)/C=C1\CC(=O)N(C)c2ccccc2N1`, for which the TGI in [1] is over 100 µM; in assay [2], over 100 µM; in assay [3], over 100 µM; in assay [4], 2.05 µM; in [5] it was over 100 µM; in assay [6], over 100 µM. In addition, the TGI in [7], in [8], in [9] and in assay [10] was over 100 µM each time.
